Experiments:
Format in all cases: in vivo
[1] = test system: Glutathione Peroxidase 3; experiment: Intestinal gene expression (microarray): Glutathione Peroxidase 3; conditions: mouse intestine; diet 1 ppm Se, 100 days; vs selenium deficient; all p < 0.01
Source text: (§1) Animal Care. Male C57BL/6J mice were housed singly and started on the experimental diets described below immediately after weaning (21 days of age). The mice were maintained in the Shared Aging Rodent Facility at the William S. Middleton Memorial Veterans Administration Medical Center (Madison, Wis.). Temperature and humidity were maintained at constant levels. Room light was controlled to provide 12-hr cycles of light and dark.
(§2) Experimental diets were created by Harlan Teklad (Madison, Wis.). Selenium content of the diets was determined by Covance Inc. (Madison, Wis.). Five (5) animals were included in each of the following treatment groups: a diet deficient in selenium (SD); a diet supplemented with selenomethionine (SM, obtained from Sigma, St. Louis, Mo.) such that the final selenium content of the diet was one (1) part per million; a diet supplemented with sodium selenite (SS, Sigma) such that the final concentration of selenium in this diet was one (1) part per million; or a diet supplemented with the yeast selenium SEL-PLEX (SP, Alltech, Lexington, Ky), such that the final concentration of selenium in this diet was one (1) part per million. SEL-PLEX. […]
(§3) Tissue sample preparation and microarray analysis. […] For intestinal expression studies, the intestine was flushed twice with saline solution and small intestine was measured and divided in three equal segments. […]

[2] = test system: Type 1 iodothyronine deiodinase; experiment: Intestinal gene expression: Type 1 iodothyronine deiodinase; conditions: mouse intestine; diet 1 ppm Se, 100 days; vs selenium deficient
Source text: as §1, §2, §3

[3] = test system: Selenoprotein W (SelW); experiment: Intestinal gene expression: Selenoprotein W; conditions: mouse intestine; diet 1 ppm Se, 100 days; vs selenium deficient
Source text: as §1, §2, §3

[4] = test system: SelR (also known as Selenoprotein X1); experiment: Intestinal gene expression: SelR; conditions: mouse intestine; diet 1 ppm Se, 100 days; vs selenium deficient
Source text: as §1, §2, §3

[5] = test system: Growth arrest and DNA-damage-inducible 45 gamma. (Gadd45g); experiment: Intestinal gene expression: Gadd45g; conditions: mouse intestine, diet 1 ppm Se, 100 days, vs selenium deficient, negative = down
Source text: as §1
Experimental diets were created by Harlan Teklad (Madison, Wis.). Selenium content of the diets was determined by Covance Inc. (Madison, Wis.). Five (5) animals were included in each of the following treatment groups: a diet deficient in selenium (SD); a diet supplemented with selenomethionine (SM, obtained from Sigma, St. Louis, Mo.) such that the final selenium content of the diet was one (1) part per million; a diet supplemented with sodium selenite (SS, Sigma) such that the final concentration of selenium in this diet was one (1) part per million; or a diet supplemented with the yeast selenium SEL-PLEX (SP, Alltech, Lexington, Ky), such that the final concentration of selenium in this diet was one (1) part per million. SEL-PLEX. Mice were provided with water and their respective diet ad libitum for 100 days. Diets were stored at the dark at 4° C. and fresh diet was added to feeder twice weekly.
Tissue sample preparation and microarray analysis. Mice were killed at 100 days of age by cervical dislocation. For intestinal expression studies, the intestine was flushed twice with saline solution and small intestine was measured and divided in three equal segments. A 3-cm region of the middle segment of the small intestine corresponding to the jejunum (˜300 mg of tissue) was cut and rinsed again with physiological saline to completely remove contents, flash frozen in liquid nitrogen and stored at −80° C. For brain (e.g., cerebral cortex) studies, the cerebral cortex was separated from the surrounding brain tissue and was flash frozen in liquid nitrogen and stored at −80° C. […]

[6] = test system: Complement component 1, q subcomponent binding protein, C1qbp; experiment: Cerebral cortex gene expression: C1qbp; conditions: mouse cerebral cortex; diet 1 ppm Se, 100 days; vs selenium deficient; * = significant, p<0.01
Source text: as §1, §2, §3

[7] = test system: Complement component 1, q subcomponent, beta polypeptide, C1qbp; experiment: Cerebral cortex gene expression: C1q beta polypeptide; conditions: mouse cerebral cortex; diet 1 ppm Se, 100 days; vs selenium deficient; * = significant, p<0.01
Source text: as §1, §2, §3

[8] = test system: Complement component 1, q subcomponent, gamma polypeptide, C1qg; experiment: Cerebral cortex gene expression: C1qg; conditions: mouse cerebral cortex; diet 1 ppm Se, 100 days; vs selenium deficient; * = significant, p<0.01
Source text: as §1, §2, §3

[9] = test system: Complement component 1, r subcomponent, C1r; experiment: Cerebral cortex gene expression: C1r; conditions: mouse cerebral cortex; diet 1 ppm Se, 100 days; vs selenium deficient; * = significant, p<0.01
Source text: as §1, §2, §3

[10] = test system: Cathepsin D; experiment: Cerebral cortex gene expression: Cathepsin D; conditions: mouse cerebral cortex; diet 1 ppm Se, 100 days; * downregulation significant relative to Se-deficient mice
Source text: as §1, §2, §3

[11] = test system: Cathepsin Z; experiment: Cerebral cortex gene expression: Cathepsin Z; conditions: mouse cerebral cortex; diet 1 ppm Se, 100 days; * downregulation significant relative to Se-deficient mice
Source text: as §1, §2, §3

[12] = test system: Cathepsin O; experiment: Cerebral cortex gene expression: Cathepsin O; conditions: mouse cerebral cortex; diet 1 ppm Se, 100 days; * downregulation significant relative to Se-deficient mice
Source text: as §1, §2, §3

[13] = test system: Presenilin 1; experiment: Cerebral cortex gene expression: Presenilin 1; conditions: mouse cerebral cortex; diet 1 ppm Se, 100 days; * significant relative to Se-deficient animals, P < 0.01
Source text: as §1, §2, §3

[14] = test system: Amyloid beta (A4) precursor-like protein (Aplp 1); experiment: Cerebral cortex gene expression: Aplp 1; conditions: mouse cerebral cortex; diet 1 ppm Se, 100 days; * significant relative to Se-deficient animals, P < 0.01
Source text: as §1, §2, §3

[15] = test system: Amyloid beta (A4) precursor protein-binding, family A, member 1(Apba1); experiment: Cerebral cortex gene expression: Apba1; conditions: mouse cerebral cortex; diet 1 ppm Se, 100 days; * significant relative to Se-deficient animals, P < 0.01
Source text: as §1, §2, §3

[16] = test system: Junb; experiment: Cerebral cortex gene expression: Junb; conditions: mouse brain (neocortex); diet 1 ppm Se, 100 days; * significant relative to Se-deficient animals
Source text: as §1, §2, §3

[17] = test system: Gadd45g1p (Growth arrest and DNA-damage inducible 45 gamma interacting protein); experiment: Brain gene expression: Gadd45g1p; conditions: mouse brain; diet 1 ppm Se, 100 days; * significant relative to Se-deficient animals
Source text: as §1, §2, §3

[18] = test system: Gst pi 1 (Gstp1); experiment: Brain gene expression: Gstp1; conditions: mouse brain; diet 1 ppm Se, 100 days; * significant relative to Se-deficient animals
Source text: as §1, §2, §3

[19] = test system: Gst zeta 1 (Gstz1); experiment: Brain gene expression: Gstz1; conditions: mouse brain; diet 1 ppm Se, 100 days; * significant relative to Se-deficient animals
Source text: as §1, §2, §3

[20] = test system: Gst mu 7 (Gstm7); experiment: Brain gene expression: Gstm7; conditions: mouse brain; diet 1 ppm Se, 100 days; * significant relative to Se-deficient animals
Source text: as §1, §2, §3

Compound	fold change (FC) in Glutathione Peroxidase 3 gene expression [1]	Type 1 iodothyronine deiodinase expression level, fold increase [2]	Selenoprotein W (SelW) expression, upregulated [3]	SelR gene expression, upregulated [4]	FC C1qbp expression [6]	FC Complement component 1, q subcomponent, beta polypeptide expression [7]	FC C1qg expression [8]	FC C1r expression [9]	FC Cathepsin D expression [10]	FC Cathepsin Z expression [11]	FC Cathepsin O expression [12]	FC Presenilin 1 expression [13]	FC Aplp 1 expression [14]	FC Apba1 expression [15]	FC Junb expression [16]	FC Gadd45g1p expression [17]	FC Gstp1 expression [18]	FC Gstz1 expression [19]	FC Gstm7 expression [20]	also measured
O=[Se](O)O [Sod-sel, sodium selenite]	3.5 fold	2.8 fold	5.1 fold	1.3 fold	1.11 fold	−1.35 fold	−1.07 fold	−1.29 fold	−1.24* fold	−1.30* fold	−1.18 fold	−1.11 fold	−1.55* fold	−1.41 fold	−1.59 fold	−1.12 fold	1.02 fold	−1.3 fold	−1.25* fold	FC Gadd45g expression ([5]; listed as SS): −2.0 (p < 0.01) fold
C[Se]CC[C@H](N)C(=O)O [SeM, selenomethionine]	4.6 fold	2.0 fold	not significantly altered	not significantly affected	1.12 fold	−1.15 fold	1.0 fold	1.04 fold	1.02 fold	−1.13 fold	−1.16 fold	1.02 fold	1.02 fold	1.08 fold	−1.38 fold	1.02 fold	−1.04 fold	−1.08 fold	−1.05 fold	FC Gadd45g expression [5]: decreased expression; FC Gadd45g expression ([5]; listed as SM): −1.5 (p < 0.05) fold
